For one data set, the target named is Large T antigen (Simian virus 40, UniProt P03070). In kind it is functional, Betapolyomavirus macacae.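 Note: Confirmatory-stage PubChem screen for compounds that inhibit SV40 T antigen.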
Data set [1] concerns the target T1, Short transient receptor potential channel 4 (Mus musculus, UniProt Q9QUQ5).
T1 sequence (Q9QUQ5 whole entry): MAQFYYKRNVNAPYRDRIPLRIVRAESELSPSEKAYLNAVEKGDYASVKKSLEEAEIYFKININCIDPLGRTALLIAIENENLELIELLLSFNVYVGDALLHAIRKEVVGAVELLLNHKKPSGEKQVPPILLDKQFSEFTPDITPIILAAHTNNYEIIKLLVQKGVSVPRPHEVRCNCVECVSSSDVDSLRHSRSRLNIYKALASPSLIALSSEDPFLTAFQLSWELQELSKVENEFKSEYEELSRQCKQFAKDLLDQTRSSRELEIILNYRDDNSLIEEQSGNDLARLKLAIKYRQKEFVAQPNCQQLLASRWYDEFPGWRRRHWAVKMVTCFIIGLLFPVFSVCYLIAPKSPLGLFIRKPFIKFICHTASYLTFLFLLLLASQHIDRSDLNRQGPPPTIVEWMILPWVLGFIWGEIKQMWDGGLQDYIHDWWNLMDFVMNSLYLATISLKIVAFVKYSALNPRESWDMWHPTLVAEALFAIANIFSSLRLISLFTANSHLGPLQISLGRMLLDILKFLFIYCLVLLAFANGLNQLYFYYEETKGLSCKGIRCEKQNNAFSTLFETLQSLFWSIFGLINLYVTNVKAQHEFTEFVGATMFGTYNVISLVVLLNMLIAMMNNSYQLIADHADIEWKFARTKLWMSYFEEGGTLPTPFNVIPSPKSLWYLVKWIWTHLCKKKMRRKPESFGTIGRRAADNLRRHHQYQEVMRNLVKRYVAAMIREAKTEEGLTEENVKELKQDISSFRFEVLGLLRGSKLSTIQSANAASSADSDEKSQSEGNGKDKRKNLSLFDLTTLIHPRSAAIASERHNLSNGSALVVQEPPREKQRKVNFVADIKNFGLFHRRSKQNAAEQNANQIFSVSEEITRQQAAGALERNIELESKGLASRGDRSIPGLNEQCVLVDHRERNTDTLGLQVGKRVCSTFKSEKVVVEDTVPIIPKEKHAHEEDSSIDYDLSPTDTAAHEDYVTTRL
The data set is described as follows: block of DAMGO-driven TRPC4 calcium entry – cell-based, HEK293 TRPC4/mu-opioid, Fluo-4 calcium, dose response (AID 434942).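 Note: potency of inhibitors blocking the TRPC4 calcium response.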 In kind it is functional.

A further data set relates to H9c2. The data set can be described thus: cells. The note with it: Rattus norvegicus, H9c2, Myocardium. In kind it is functional, cell-based.
A short description of data set [2]: cells. In kind it is functional, cell-based.
Data set [3] in a line: cells. In kind it is functional, cell-based. The source holds these as a separate data set.
Data set [4] deals with T2, RNA-binding protein pos-1 (Caenorhabditis elegans, UniProt G5EF15).
T2 sequence (G5EF15 whole entry): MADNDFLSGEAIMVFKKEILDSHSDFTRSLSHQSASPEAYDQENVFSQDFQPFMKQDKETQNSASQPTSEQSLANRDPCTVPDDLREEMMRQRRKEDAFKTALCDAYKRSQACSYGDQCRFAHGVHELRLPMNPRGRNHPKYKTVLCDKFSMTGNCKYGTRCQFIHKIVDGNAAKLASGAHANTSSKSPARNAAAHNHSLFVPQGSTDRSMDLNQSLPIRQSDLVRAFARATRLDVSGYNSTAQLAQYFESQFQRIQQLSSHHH
The data set can be described thus: disruptors of C. elegans POS-1 RNA interaction – biochemical, fluorescence polarization, dose response (AID 1964).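 Note: purified POS-1 fused to maltose binding protein made in E. coli; potency of compounds blocking POS-1 binding to fluorescent RNA.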

Data set [5] in a line: reduction of Shn3 3'UTR-driven luciferase in osteoblasts – cell-based, Clone20 osteoblasts, firefly luciferase, cherry-picked, dose response (AID 624132).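 Note: firefly luciferase luminescence from reporter carrying the Shn3 3'UTR in osteoblasts.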 In kind it is functional.
A short description of data set [6]: non-specific 3'UTR reporter inhibition in Clone20-Shn3RL – cell-based, Renilla luciferase, cherry-picked, counter-screen for Shn3 inhibitor project, dose response (AID 624133). In kind it is functional. Background: Counterscreens check selectivity or assay interference.
Data set [7] is described as follows: loss of viability in HepG2 cells – cell-based, CellTiter-Glo, cherry-picked, cytotoxicity control for Shn3 inhibitor project, dose response (AID 624134). In kind it is functional.
Data set [8] concerns the target T3, Zinc finger protein mex-5 (Caenorhabditis elegans, UniProt Q9XUB2).
T3 sequence (Q9XUB2 whole entry): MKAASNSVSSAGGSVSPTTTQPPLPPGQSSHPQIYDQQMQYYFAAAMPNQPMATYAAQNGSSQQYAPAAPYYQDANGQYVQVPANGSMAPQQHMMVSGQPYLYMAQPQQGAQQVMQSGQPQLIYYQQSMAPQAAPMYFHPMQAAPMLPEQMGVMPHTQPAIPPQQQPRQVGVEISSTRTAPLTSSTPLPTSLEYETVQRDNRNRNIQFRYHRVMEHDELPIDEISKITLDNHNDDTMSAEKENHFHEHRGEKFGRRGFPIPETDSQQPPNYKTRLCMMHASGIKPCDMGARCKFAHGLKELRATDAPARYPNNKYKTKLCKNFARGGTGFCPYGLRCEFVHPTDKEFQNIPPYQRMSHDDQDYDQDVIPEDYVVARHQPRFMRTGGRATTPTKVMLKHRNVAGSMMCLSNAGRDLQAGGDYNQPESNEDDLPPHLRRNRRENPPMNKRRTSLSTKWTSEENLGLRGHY
The data set can be described thus: potency of MEX-5 RNA-binding blockers – biochemical, C. elegans, fluorescence polarization, dose response (AID 1960).

The target in another data set is Cytochrome P450 2C9 (Homo sapiens, UniProt P11712).
Data set [9] can be described thus: Luminescence Cell-Based Dose Confirmation HTS to Identify Activators of 5'UTR Stem-Loop Driven Alpha-Synuclein mRNA Translation in H4 Neuroglioblastoma Cells. [Related pubchem assays: 1829 (Project Summary), 1814 (Primary HTS)]. In kind it is functional.
A short description of data set [10]: Luminescence Cell-Based Dose Response HTS to Identify Activators of Luciferase Translation or Activity in H4 […] Cells. [Related pubchem assays: 1829 (Project Summary), 1814 (Primary HTS)]. In kind it is functional.
The target of a further data set is T4, Protein skinhead-1 (Caenorhabditis elegans, UniProt P34707).
T4 sequence (P34707 whole entry): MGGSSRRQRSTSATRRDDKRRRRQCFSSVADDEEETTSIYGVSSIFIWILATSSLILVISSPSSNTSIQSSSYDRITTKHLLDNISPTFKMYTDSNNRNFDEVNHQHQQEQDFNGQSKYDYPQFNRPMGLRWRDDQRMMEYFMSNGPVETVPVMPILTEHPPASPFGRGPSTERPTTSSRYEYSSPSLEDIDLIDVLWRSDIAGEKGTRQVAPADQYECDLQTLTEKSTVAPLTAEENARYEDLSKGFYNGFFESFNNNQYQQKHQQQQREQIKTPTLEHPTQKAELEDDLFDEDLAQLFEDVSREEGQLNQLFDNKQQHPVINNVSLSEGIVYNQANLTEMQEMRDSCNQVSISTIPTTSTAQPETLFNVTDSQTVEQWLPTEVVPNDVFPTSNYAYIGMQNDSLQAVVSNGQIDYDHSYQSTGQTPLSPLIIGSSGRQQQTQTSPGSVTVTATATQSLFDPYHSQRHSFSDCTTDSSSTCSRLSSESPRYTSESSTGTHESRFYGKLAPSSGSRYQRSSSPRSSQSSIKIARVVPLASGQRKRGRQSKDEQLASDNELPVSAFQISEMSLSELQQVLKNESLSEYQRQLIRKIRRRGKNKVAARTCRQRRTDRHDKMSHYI
In kind it is functional.

For the next data set, the system named is H4. The data set is described as follows: Luminescence Cell-Based Dose Response HTS to Identify Activators of 5'UTR Stem-Loop Driven Prion Protein mRNA Translation in H4 Neuroglioblastoma Cells. [Related pubchem assays: 1829 (Project Summary), 1814 (Primary HTS)]. In kind it is functional. The conditions noted are these: Homo sapiens.
The nature of data set [11]: blockers of HIV-1 envelope-mediated cell-cell fusion – cherry-pick, dose response (AID 652057). In kind it is functional, cell-based.

Activity calls are given as the source filed them. A value given as a limit tells only on which side of the number the result lay.

Chain of Cytochrome P450 2C9 (P11712 whole entry): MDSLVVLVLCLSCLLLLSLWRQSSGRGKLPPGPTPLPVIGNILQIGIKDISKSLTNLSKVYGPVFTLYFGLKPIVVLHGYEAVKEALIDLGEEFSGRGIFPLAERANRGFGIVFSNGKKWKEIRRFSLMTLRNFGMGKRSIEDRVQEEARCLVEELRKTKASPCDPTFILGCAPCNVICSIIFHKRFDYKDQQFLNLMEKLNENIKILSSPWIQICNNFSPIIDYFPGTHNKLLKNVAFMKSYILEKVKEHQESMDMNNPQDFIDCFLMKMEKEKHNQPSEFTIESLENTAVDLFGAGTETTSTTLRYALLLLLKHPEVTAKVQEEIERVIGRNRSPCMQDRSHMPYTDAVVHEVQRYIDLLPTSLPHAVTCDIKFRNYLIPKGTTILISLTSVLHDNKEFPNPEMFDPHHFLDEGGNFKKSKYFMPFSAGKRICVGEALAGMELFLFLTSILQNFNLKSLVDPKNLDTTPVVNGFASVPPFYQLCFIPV
Chain of Large T antigen (P03070 whole entry): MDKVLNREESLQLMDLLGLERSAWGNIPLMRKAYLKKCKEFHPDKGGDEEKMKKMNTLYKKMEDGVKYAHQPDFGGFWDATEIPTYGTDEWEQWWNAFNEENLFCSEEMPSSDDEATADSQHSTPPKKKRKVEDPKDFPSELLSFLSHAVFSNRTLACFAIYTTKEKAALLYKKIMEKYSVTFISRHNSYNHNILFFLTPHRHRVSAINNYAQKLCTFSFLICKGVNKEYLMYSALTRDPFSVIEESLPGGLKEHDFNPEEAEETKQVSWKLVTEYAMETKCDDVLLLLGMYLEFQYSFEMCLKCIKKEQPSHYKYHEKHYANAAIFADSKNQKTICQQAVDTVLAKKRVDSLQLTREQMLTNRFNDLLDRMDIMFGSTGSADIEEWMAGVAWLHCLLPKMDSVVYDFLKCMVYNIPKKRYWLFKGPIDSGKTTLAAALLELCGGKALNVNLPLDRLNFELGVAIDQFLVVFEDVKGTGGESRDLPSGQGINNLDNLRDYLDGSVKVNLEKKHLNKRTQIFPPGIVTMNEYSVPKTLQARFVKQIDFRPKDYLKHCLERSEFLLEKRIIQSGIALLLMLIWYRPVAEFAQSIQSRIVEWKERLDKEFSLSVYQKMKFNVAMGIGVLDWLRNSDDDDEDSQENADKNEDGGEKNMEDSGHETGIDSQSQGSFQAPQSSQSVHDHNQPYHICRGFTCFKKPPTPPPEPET

Usually IC50 stands for the concentration at which inhibition is half-maximal. A word on the EC50: it is the concentration at which the effect is half-maximal. Regarding `CN(C)c1ccc(NC(=O)CN2C3CCCC2CC(NC(=O)c2ccccc2)C3)cc1` (stereo not given), the IC50 on Large T antigen was 7.46 µM (active). The EC50 in data set [1] was 3.35 µM (active). Consider `Cn1c2ccccc2c(=O)c2ccc(NCc3ccc4c(c3)OCO4)cc21`, for which, in the data set on H9c2, the IC50 was 15.2 µM (active). For the compound `Cc1ccc2nc(SCC(=O)Nc3ccc(Br)cc3)nc(=O)n2c1`, the EC50 in the data set “cells [2]” and in the data set “cells [3]” was > 350 µM (not active) each time. For the compound `COc1cc(OC)c(C2N(C)c3ccccc3N2C)cc1OC`, the EC50 in data set [1] is 1.33 µM (active).

Regarding `CCN(Cc1ccccc1)C(=O)c1cc2c(=O)oc3ccc(C)cc3c2s1`, the IC50 in the data set on H9c2 was > 79 µM (inactive).

For `Cc1cnc(C=O)c2cccc([N+](=O)[O-])c12`, the IC50 in the data set with H9c2 is > 79 µM (inactive). On to `COc1ccc(S(=O)(=O)NNC(=O)C(=O)NNc2ccccn2)cc1`, for which the concentration for a half-maximal effect (EC50) in data set [4] is reported as > 300 µM (not active). For `COCCn1c(SCc2cccc([N+](=O)[O-])c2)nc2ccccc2c1=O`, in data set [1], the EC50 was 1.68 µM (active). The AC50 is the concentration at which the activity in the assay is half-maximal. Consider `O=C(CCN1CCc2ccccc2C(O)(c2ccccc2)C1)c1ccc2c(c1)OCCO2` (stereo not given), for which the AC50 in [5] is 23.1 µM (active); in [6], 11.4 µM (active); in [7], 63.3 µM (active). For the same compound, the EC50 in data set [1] was 8.41 µM (active). As to `CC(C)=CCN1CCN(Cc2cccc3nonc23)CC1CCO` (stereo not given), the EC50 in [1] is 2.99 µM (active). As for `OC(C#Cc1ccccn1)c1cccs1` (stereo not given), the EC50 is 27.4 µM (inconclusive) in [8] and 33.4 µM (active) in data set [4]. `COc1ccc(S(=O)(=O)N2CCc3ccccc3C2)cc1OC`: the AC50 result at Cytochrome P450 2C9 is given as “inconclusive”. As for `O=C(COc1ccccc1[N+](=O)[O-])Nc1ccc(N2CCN(C(=O)c3cccs3)CC2)cc1`, in the data set with H9c2, the IC50 was > 79 µM (inactive). With `COc1cccc2c1OC[C@@H](CO)[C@H]2N(C)C(=O)Nc1ccc(Cl)cc1Cl`, the AC50 result on Cytochrome P450 2C9 is “inconclusive”. For the compound `CCCN1CN(Cc2ccco2)c2nc3ccccc3n2C1`, in data set [1], the EC50 was 1.88 µM (active).

As to `COC(=O)c1cc(-n2cccc2)ccc1N1CCOCC1`, the EC50 in [8] and in [4] was > 300 µM (not active) each time. For `Cc1ccc(Cl)cc1N1CCN(CC(O)COCc2ccco2)CC1` (stereo not given), the EC50 in “cells [2]” and in “cells [3]” was > 350 µM (not active) each time.

In the case of `O=C1N=C(N2CCOCC2)S/C1=C\c1ccc(-c2ccccc2Cl)o1`, the EC50 in data set [8] and in [4] was > 300 µM (not active) throughout. For `COc1ccc(/C(O)=C/C=N/c2ccc([N+](=O)[O-])cc2C)c(OC)c1`, the EC50 in data set [8] and in [4] was > 300 µM (not active) in each case.

Consider `Cc1ccc(N(CCC#N)C(=O)CSc2nc(O)c3ccccc3n2)cc1`, for which, in the data set on H9c2, the IC50 is 35.4 µM (inactive). Same read-out and setting: to `Cc1ccc(Cn2c(CCNc3nc(-c4ccc(Cl)c([N+](=O)[O-])c4)cs3)nc3cc(C(=O)NCCCO)ccc32)cc1` belongs 47.7 µM (inactive). `N#CC(C#N)=Cc1ccc(N2CCOCC2)cc1`: the EC50 in data set [8] is > 300 µM (not active); in data set [4], > 300 µM (inconclusive).

In the case of `CCSc1nc(NCCN(C)C)c2c3c(sc2n1)COC(C)(CC)C3` (stereo not given), the EC50 in the data set “cells [2]” and in “cells [3]” was > 350 µM (not active) throughout. As for `O=C(Nc1ccc(F)cc1)N1CCN2C(=O)c3ccccc3C12c1ccccc1` (stereo not given), the EC50 in data set [1] was 1.68 µM (active).

In the case of `Cc1cc(CC(C)C)n(-c2nc3ccccc3c(=O)n2OCc2ccccc2)n1`, the EC50 in [9] was 6.96 µM (active); in [10], 13.5 µM (active); in data set [8], > 300 µM (not active); in the data set with H4, > 120 µM (not active); in [4] it was > 300 µM (not active). Also, at Protein skinhead-1, the IC50 was > 100 µM (inactive). As for `COc1ccc(C(=O)Nc2cccc(-c3ccc4nncn4n3)c2)cc1`, the EC50 in “cells [2]” and in the data set “cells [3]” was > 350 µM (not active) in each case. With `Cc1ccc(C)c(OCC(=O)N2CCN(Cc3ccc4c(c3)OCO4)CC2)c1`, the EC50 in the data set “cells [2]” and in the data set “cells [3]” was > 350 µM (not active) in each case. For `CCCNC(=O)C[C@@H]1C[C@H]2c3cc(NC(=O)Cc4ccncc4)ccc3O[C@H]2[C@@H](CO)O1`, the AC50 in data set [11] is 55.2 µM (active).

On to `CC(C)(C)NC(=O)c1cccc(NC(=O)c2ccc(NC(=O)c3ccco3)cc2)c1`, for which the IC50 with H9c2 is > 79 µM (inactive).

On to `CCN1C(=O)C(=Cc2ccc(N3CCOCC3)o2)C(=O)N(CC)C1=S`, for which the EC50 was > 300 µM (inconclusive) in [8] and > 300 µM (not active) in data set [4].

The values above are taken from ChEMBL document CHEMBL1201862, “PubChem BioAssay data set” (2004).
